Assay results as given in paper PMC5772633 (Scientific Reports, 2018).
Values joined by “and” are separate entries in the source; they are usually repeats but may differ in a detail not shown here. Identical values can stand only once.

Columns and labels:
[1] = target: T1, human D3 receptor mutant I183F (Homo sapiens, UniProt P35462, I183F); assay: Radioligand binding assay, D3R mutant I183F
T1 construct: Flag tag (N); His tag (C); expressed in transfected cells; host or cells: SF9 insect cells (membranes)
Description: (§1) The D3R mutations were located in the OBS or the vicinity of the OBS and were performed on nine different residues (Fig. 1).
(§2) Point mutants were made by site-directed mutagenesis using 0.5 μl Takara’s PrimeStar Hot start polymerase with 20ng D3R wild type template plasmid DNA, 5 × PrimeStar buffer, 4 μl dNTP mix (2.5 mM each dNTP), plus 0.5 μg forward and reverse primers. 18 cycles were performed at 98 °C for 30 seconds, 55 °C for 30 seconds and 72 °C for 6.5 minutes. The template was degraded with DpnI for 1 hr and transformed into DH5α competent cells.
(§3) Mutants were expressed in SF9 insect cells for 48 hrs with an approximate MOI of 5. A list of mutagenesis primers used can be found in Table S3.
(§4) Binding assays were performed on membranes prepared from transiently transfected human D3 receptor mutants in SF9 insect cells. Frozen cell paste was homogenized by Polytron in 50 mM Tris HCl buffer (pH 7.4 at 4 degrees C) containing 2.0 mM MgCl2. […] 7-OH-DPAT levels were determined by liquid scintillation counting of the filterplates in Ecolume scintillation fluid. […] Ki values were calculated according to the Cheng- Prusoff equation, Ki = IC50/(1 + (L/Kd)), where L is the concentration of the radioligand used in the experiment and the Kd value is the dissociation constant for the radioligand at the mutant receptor (determined previously by saturation analysis).

[2] = target: T2, human D3 receptor mutant Y365L (Homo sapiens, UniProt P35462); assay: Radioligand binding assay, D3R mutant Y365L; settings: two replicas
T2 construct: Flag tag (N); His tag (C); expressed in transfected cells; host or cells: SF9 insect cells (membranes)
Description: as §1, §2, §3, §4

[3] = target: human D3 receptor triple mutant Y36L, S182I, V350I (Homo sapiens, UniProt P35462, S182I/V350I/Y36L); assay: Radioligand binding assay, D3R triple mutant; settings: two replicas
Description: as §1, §2, §3, §4

[4] = target: T3, human D3 receptor mutant C114L (Homo sapiens, UniProt P35462, C114L); assay: Radioligand binding assay, D3R mutant C114L; settings: two replicas
T3 construct: Flag tag (N); His tag (C); expressed in transfected cells; host or cells: SF9 insect cells (membranes)
Description: as §1, §2, §3, §4

[5] = parameters: method as in PMID 27715007; settings: in vivo; cited from earlier work
wt-D3R = target: T4, wt-D3R (Homo sapiens, UniProt P35462); assay: Radioligand ([3H]7-OH-DPAT) binding assay, wild type D3R membranes from SF9 cells
T4 construct: Flag tag (N); His tag (C); expressed in transfected cells; host or cells: SF9 insect cells (membranes), pFastbac/baculovirus

[6] = target: T5, human D3 receptor mutant E90L (Homo sapiens, UniProt P35462, E90L); assay: Radioligand binding assay, D3R mutant E90L; settings: two replicas
T5 construct: Flag tag (N); His tag (C); expressed in transfected cells; host or cells: SF9 insect cells (membranes)
Description: as §1, §2, §3
Binding assays were performed on membranes prepared from transiently transfected human D3 receptor mutants in SF9 insect cells. Frozen cell paste was homogenized by Polytron in 50 mM Tris HCl buffer (pH 7.4 at 4 degrees C) containing 2.0 mM MgCl2. The cell membranes were spun in a high-speed centrifuge at 40,000 × g for ten minutes. The final pellet was re-suspended in assay buffer (50 mM Tris buffer, 120 mM NaCl, 5 mM MgCl2, 5 mM KCl, 2 mM CaCl2, pH 7.4 at 37 °C). […] 7-OH-DPAT levels were determined by liquid scintillation counting of the filterplates in Ecolume scintillation fluid.

[7] = target: T6, human D3 receptor mutant Y36F (Homo sapiens, UniProt P35462, Y36F); assay: Radioligand binding assay, D3R mutant Y36F; settings: two replicas
T6 construct: Flag tag (N); His tag (C); expressed in transfected cells; host or cells: SF9 insect cells (membranes)
Description: as §1, §2, §3, §4

[8] = target: T7, human D3 receptor mutant V189A (Homo sapiens, UniProt P35462, V189A); assay: Radioligand binding assay, D3R mutant V189A
T7 construct: Flag tag (N); His tag (C); expressed in transfected cells; host or cells: SF9 insect cells (membranes)
Description: as §1, §2, §3, §4

[9] = target: T8, human D3 receptor mutant V189I (Homo sapiens, UniProt P35462, V189I); assay: Radioligand binding assay, D3R mutant V189I; settings: two replicas
T8 construct: Flag tag (N); His tag (C); expressed in transfected cells; host or cells: SF9 insect cells (membranes)
Description: as §1, §2, §3, §4

[10] = target: T9, human D3 receptor mutant E90Q (Homo sapiens, UniProt P35462, E90Q); assay: Radioligand binding assay, D3R mutant E90Q; settings: two replicas
T9 construct: Flag tag (N); His tag (C); expressed in transfected cells; host or cells: SF9 insect cells (membranes)
Description: as §1, §2, §3, §4

D2R = system: D2R; parameters: method as in PMID 27715007; settings: cited from earlier work
[11] = target: T10, human D3 receptor mutant S182I (Homo sapiens, UniProt P35462, S182I); assay: Radioligand binding assay, D3R mutant S182I; settings: two replicas
T10 construct: Flag tag (N); His tag (C); expressed in transfected cells; host or cells: SF9 insect cells (membranes)
Description: as §1, §2, §3, §4

[12] = target: T11, human D3 receptor mutant Y36L (Homo sapiens, UniProt P35462, Y36L); assay: Radioligand binding assay, D3R mutant Y36L; settings: two replicas
T11 construct: Flag tag (N); His tag (C); expressed in transfected cells; host or cells: SF9 insect cells (membranes)
Description: as §1, §2, §3, §4

[13] = target: human D3 receptor mutant Y373F (Homo sapiens, UniProt P35462, Y373F); assay: Radioligand binding assay, D3R mutant Y373F; settings: two replicas
Description: as §1, §2, §3, §4

D3R = settings: Table 1; cited from earlier work

SMILES | Ki ([1]; D3R mutant I183F, two replicas) | decrease in affinity (fold-shift Ki mutant/Ki wt) ([1]; I183F mutant vs wt D3R) [fold] | Ki [2] | Ki [3] | Ki [4] | locomotor or catalepsy side effects [5] | Ki (wt-D3R; wild type D3R, Table 1) [nM] | ΔGexp (experimental binding free energy) (wt-D3R; wt D3R) [kJ/mol] | Ki [6] | Ki [7] | Ki ([8]; D3R mutant V189A, two replicas) | decrease in affinity (fold-shift Ki mutant/Ki wt) ([8]; V189A mutant vs wt D3R) [fold] | Ki [9] | Ki [10] | D2R receptor occupancy (D2R) [%] | Ki [11] | Ki [12] | Ki [13] | Ki (D3R) [nM]
CCN1CCO[C@@H](c2ccc(NS(=O)(=O)c3ccc(C(C)C)cc3)c(C)c2)C1 [Compound 1, PF-4363467] | 55 nM and 43 nM | 14 | 13.1 nM and 12.5 nM | 29.5 nM and 22 nM | 1.6 nM and 1.3 nM | lack of locomotor or catalepsy side effects | 3.4 ± 0.4 | -48.5 | 4.9 nM and 3.7 nM | 3.2 nM and 2.5 nM | 24 nM and 30 nM | 8 | 8.2 nM and 6.5 nM | 6 nM and 5.4 nM | 86 | 3.6 nM and 2.1 nM | 22 nM and 13 nM | 14.8 nM and 15.8 nM | 
CCc1cc(Cl)c(OC)c(C(=O)NC[C@@H]2CCCN2CC)c1O [Compound 2, Eticlopride] |  |  |  |  |  |  |  |  |  |  |  |  |  |  |  |  |  |  | 0.24
